{
  "source": "patent US20100028879A1",
  "about": "“Modulators of HSD17b7 for treating acne or hyperseborrhea” (GALDERMA RESEARCH & DEVELOPMENT, priority 2006, published 2010)",
  "test_system": "HSD17B7 gene",
  "details": "gonadectomized mice, short-term treatment",
  "note": "Read-outs that look alike come from different tables or passages of the source.",
  "method": "The points Veh-24h-a and Veh-24h-b show the level of expression of HSD17B7 of gonadectomized mice untreated with DHT.\nThe expression of the genes was analyzed on an Affymetrix station (microfluidic model; hybridization oven; scanner; computer) following the protocols provided by the company. Briefly, the total RNA isolated from the tissues was transcribed to cDNA. From the double-stranded cDNA, a cRNA labeled with biotin was synthesized using T7 polymerase and a precursor NTP conjugated to biotin. The cRNAs were then fragmented to small sized fragments. […] The Affymetrix chip is hybridized with the biotinylated cRNA, rinsed and then fluorescence labeled using a fluorophore conjugated to streptavidin. After washings, the chip is scanned and the results are calculated using the MAS5 software provided by Affymetrix. An expression value is obtained for each gene as well as the indication of the significance of the value obtained.\nB. Male mice were gonadectomized and were then treated with the vehicle or DHT. The preputial glands were removed for a period ranging up to 4 days (androgenic treatment alone—observation of a short-term kinetics). The RNA was isolated and the expression of the genes was analyzed by the Affymetrix technique using two different probe sets: 1417871_at (FIGS. 2A and 2C) and 1448865_at (FIGS. 2B and 2D).",
  "data": [
    {"smiles": "C[C@]12CCC(=O)C[C@@H]1CC[C@@H]1[C@@H]2CC[C@]2(C)[C@@H](O)CC[C@@H]12", "note": "[DHT, Dihydrotestosterone]", "values": [
      {"measurement": "mRNA for HSD17B7 in the mouse preputial gland", "setting": "kinetic study 15 minutes to 96 hours, effect visible at 24 and 96 hours, FIGS. 2A, 2B", "result": "moderately induced"},
      {"measurement": "mRNA for HSD17B7 in the mouse preputial gland", "setting": "kinetic study 1 hour to 24 hours, effect starting at 12 hours, well visible at 18 and 24 hours, FIGS. 2C, 2D", "result": "induced"}
    ]}
  ]
}
